Where a chain is given by its changes, count along the chain named.
Assays:
[1] = target: T1, rP2X4R E285A mutant (Rattus norvegicus, UniProt P51577, E285A); test: whole-cell patch clamp, HEK293T cells expressing mutant; assay type: cell-based
T1 construct: expressed in transfected cells; host or cells: HEK293T
T1 sequence (P51577 1-388 E285A): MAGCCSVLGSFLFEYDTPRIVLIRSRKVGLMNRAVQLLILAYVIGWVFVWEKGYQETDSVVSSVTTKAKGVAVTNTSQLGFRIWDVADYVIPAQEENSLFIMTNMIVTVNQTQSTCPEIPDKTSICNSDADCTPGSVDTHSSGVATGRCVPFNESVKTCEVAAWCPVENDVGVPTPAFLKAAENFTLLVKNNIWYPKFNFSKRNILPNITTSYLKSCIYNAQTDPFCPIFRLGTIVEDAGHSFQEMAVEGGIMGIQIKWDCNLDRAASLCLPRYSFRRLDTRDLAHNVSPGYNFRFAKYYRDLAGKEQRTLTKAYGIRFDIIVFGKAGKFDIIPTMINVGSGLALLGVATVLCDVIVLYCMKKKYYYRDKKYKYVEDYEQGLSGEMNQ

[2] = target: T2, rP2X4R I209A mutant (Rattus norvegicus, UniProt P51577, I209A); test: as above; assay type: cell-based
T2 construct: expressed in transfected cells; host or cells: HEK293T
T2 sequence (P51577 1-388 I209A): T1 sequence (P51577 1-388 E285A) with I209A, A285E

[3] = 3 µM IVM 4-6 min vs IVM-untreated
[4] = 100 µM ATP 60 s, biexponential fit
[5] = contribution of τdes2, 100 µM ATP 60 s
[6] = decay after removal of 1 or 3 µM ATP, 3 µM IVM
[7] = naïve receptors, 2–5 s application

In the case of `CC[C@H](C)[C@H]1O[C@]2(CC[C@@H]1C)C[C@@H]1C[C@@H](C/C=C(\C)[C@@H](O[C@H]3C[C@H](OC)[C@@H](O[C@H]4C[C@H](OC)[C@@H](O)[C@H](C)O4)[C@H](C)O3)[C@@H](C)/C=C/C=C3\CO[C@@H]4[C@H](O)C(C)=C[C@@H](C(=O)O1)[C@]34O)O2` [IVM, ivermectin], the “Fold incr. Imax” value [1, 3] is reported as 1.3 ± 0.4 fold and the “Fold incr. Imax” value [2, 3] is reported as 2.1 ± 0.3 fold.
For `Nc1ncnc2c1ncn2[C@@H]1O[C@H](COP(=O)(O)OP(=O)(O)OP(=O)(O)O)[C@@H](O)[C@H]1O` [ATP], the τdes1 [1, 4] was 0.9 ± 0.2 s, the τdes2 [1, 4] was 8.5 ± 3.6 s and the Imax ([1]; 100–1000 µM ATP) was 2.0 ± 0.5 nA. The “Imax+IVM” value ([1]; ATP after 3 µM IVM 4-6 min) was 2.6 ± 0.6 nA, the “A2 /(A1+A2)” value [1, 5] was 65 ± 2% and the “τoff +IVM” value [1, 6] was 24 ± 4.3 s. For the same compound, the EC50 [1, 7] was 7.1 ± 3 µM, the τdes ([1]; weighted, 100 µM ATP 60 s) was 6.0 ± 2.6 s and the τdes1 [2, 4] was 2.1 ± 0.8 s. The τdes2 [2, 4] was 9.3 ± 2.6 s, the Imax ([2]; 100–1000 µM ATP) was 1.9 ± 0.4 nA and the “Imax+IVM” value ([2]; ATP after 3 µM IVM 4-6 min) was 4.1 ± 0.8 nA. The “A2 /(A1+A2)” value [2, 5] was 70 ± 2%, the “τoff +IVM” value [2, 6] was 22 ± 3.0 s and the EC50 [2, 7] was 4.3 ± 2.1 µM. It also gave a τdes ([2]; weighted, 100 µM ATP 60 s) of 6.3 ± 0.2 s.

Source: publication PMC4232510, “Identification of Functionally Important Residues of the Rat P2X4 Receptor by Alanine Scanning Mutagenesis of the Dorsal Fin and Left Flipper Domains” (PLoS ONE, 2014)
